Laboratory results from the NIST ThermoML archive (doi:10.1016/j.jct.2007.07.010).
“And” between values parts separate entries of the source, which are not always exact repeats. Equal entries are not always repeated.

Experiments:
[1] = Crystal; for vapor or sublimation pressure: Calculated from knudsen effusion weight loss; for Normal melting temperature: DTA
[2] = Molar enthalpy of transition or fusion; settings: Crystal; DSC

O=C(O)Cc1cccc(Cl)c1 [(3-chlorophenyl)ethanoic acid]
[1]
Settings	vapor or sublimation pressure
319.2 K	0.000131 kPa and 0.000132 kPa and 0.000133 kPa
321.13 K	0.000172 kPa and 0.000174 kPa
323.11 K	0.000226 kPa and 0.000216 kPa and 0.000224 kPa
325.2 K	0.000281 kPa and 0.000279 kPa
327.12 K	0.000356 kPa and 0.00036 kPa
329.11 K	0.000468 kPa and 0.000453 kPa and 0.00046 kPa
331.19 K	0.000576 kPa and 0.000578 kPa and 0.000567 kPa
333.11 K	0.000733 kPa and 0.000713 kPa
335.11 K	0.00092 kPa

Settings	Molar enthalpy of transition or fusion [kcal/mol]	Normal melting temperature [°C]
[1]	–	76.63
[2]	5.4	–

O=C(O)Cc1ccc(Cl)cc1 [(4-chlorophenyl)ethanoic acid]
[1]
Settings	vapor or sublimation pressure
325.2 K	0.000154 kPa and 0.000156 kPa and 0.000153 kPa
327.15 K	0.000194 kPa and 0.000199 kPa and 0.000197 kPa
329.12 K	0.000252 kPa and 0.00025 kPa
331.19 K	0.000318 kPa and 0.000312 kPa
333.14 K	0.000401 kPa and 0.000398 kPa and 0.000394 kPa
335.12 K	0.000506 kPa and 0.000502 kPa
337.2 K	0.000631 kPa and 0.000634 kPa
339.13 K	0.000788 kPa and 0.000793 kPa and 0.000775 kPa
341.11 K	0.001 kPa and 0.00099 kPa and 0.00098 kPa

Settings	Molar enthalpy of transition or fusion [kcal/mol]	Normal melting temperature [°C]
[1]	–	104.8
[2]	5.63	–

O=C(O)Cc1ccccc1Cl [(2-chlorophenyl)ethanoic acid]
[1]
Settings	vapor or sublimation pressure
322.2 K	0.000151 kPa and 0.000153 kPa and 0.000152 kPa
324.14 K	0.000196 kPa and 0.000198 kPa and 0.000197 kPa
326.11 K	0.00025 kPa and 0.000251 kPa and 0.000255 kPa
328.2 K	0.000315 kPa and 0.00032 kPa and 0.000316 kPa
330.13 K	0.000401 kPa and 0.000406 kPa and 0.000402 kPa
332.19 K	0.000518 kPa and 0.000512 kPa
334.12 K	0.00065 kPa and 0.000639 kPa
336.11 K	0.000837 kPa and 0.000813 kPa and 0.000829 kPa
338.11 K	0.00105 kPa and 0.00103 kPa

Settings	Molar enthalpy of transition or fusion [kcal/mol]	Normal melting temperature [°C]
[1]	–	94.24
[2]	5.82	–
